Tests used:
Experiment in all cases: Bliss excess, mean over the matrix (fraction); higher = more synergy
[1] = system: SCC-9 (Oral Cavity Carcinoma)
Summary of the method: (§1)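 Bliss excess equals the observed combination effect minus the expected value EA + EB − EA·EB, where EA and EB are the effects of each agent alone. Combination Emax is the second-highest inhibition within the matrix. Inhibition was scaled from CellTiter-Glo 2.0 luminescence, with 0 set by vehicle wells and 1 by blank wells, after 72 hours of two-drug dosing of cells plated in 1536-well plates.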

[2] = system: VMRC-LCD (Lung Adenocarcinoma)
Summary of the method: as §1

[3] = system: KP-2 (Pancreatic Carcinoma)
Summary of the method: as §1

[4] = system: KU-19-19 (Bladder Carcinoma)
Summary of the method: as §1

[5] = system: GOTO (Neuroblastoma)
Summary of the method: as §1

[6] = system: NCI-H2405 (Lung Adenocarcinoma)
Summary of the method: as §1

[7] = system: DG-75 (Burkitt's Lymphoma)
Summary of the method: as §1

[8] = system: EW-3 (Ewing's Sarcoma)
Summary of the method: as §1

[9] = system: NCI-H1573 (Lung Adenocarcinoma)
Summary of the method: as §1

[10] = system: A704 (Kidney Carcinoma)
Summary of the method: as §1

[11] = system: IMR-5 (Neuroblastoma)
Summary of the method: as §1

[12] = system: HC-1 (Other Blood Carcinomas)
Summary of the method: as §1

[13] = system: OCUB-M (Breast Carcinoma)
Summary of the method: as §1

[14] = system: EW-13 (Ewing's Sarcoma)
Summary of the method: as §1

Row | SMILES | Bliss excess [1] | Bliss excess [2] | Bliss excess [3] | Bliss excess [4] | Bliss excess [5] | Bliss excess [6] | Bliss excess [7] | Bliss excess [8] | Bliss excess [9] | Bliss excess [10] | Bliss excess [11] | Bliss excess [12] | Bliss excess [13] | Bliss excess [14]
1 | COc1cccc(OCCCN)c1-c1cc(Nc2cnc(C#N)cn2)n[nH]1 [Prexasertib] + C[C@@H]1COCCN1C2=NC(=NC(=C2)C3(CC3)[S@](=N)(=O)C)C4=C5C=CNC5=NC=C4 [AZD6738] (first compound max 1 µM, 7x7, partner max 10 µM) | 0.0803 | 0.0201 | -0.0324 | -0.0796 | -0.0866 | 0.0046 | -0.0381 | -0.0275 | 0.0055 | 0.0224 | -0.01 | -0.0139 | 0.0421 | 0.0572
2 | COc1cccc(OCCCN)c1-c1cc(Nc2cnc(C#N)cn2)n[nH]1 [Prexasertib] + O=C(c1cc(Cc2n[nH]c(=O)c3ccccc23)ccc1F)N1CCN(C(=O)C2CC2)CC1 [Olaparib] (first compound max 1 µM, 7x7, partner max 10 µM) | -0.0181 | -0.0955 | -0.0682 | 0.0061 | -0.101 | -0.0339 | -0.0819 | -0.0378 | 0.0418 | -0.0973 | -0.0097 | 0.0035 | 0.0018 | -0.0562
3 | CS(=O)(=O)CCNCc1ccc(-c2ccc3ncnc(Nc4ccc(OCc5cccc(F)c5)c(Cl)c4)c3c2)o1 [Lapatinib] + C[C@@H](Oc1cc(-c2cnn(C3CCNCC3)c2)cnc1N)c1c(Cl)ccc(F)c1Cl [Crizotinib] (first compound max 10 µM, 7x7, partner max 10 µM) | 0.0015 | -0.0246 | -0.0353 | -0.034 | -0.0499 | -0.0396 | 0.0033 | -0.0505 | 0.121 | -0.122 | -0.0113 | -0.0124 | -0.0465 | 0.0066
4 | COc1cccc(OCCCN)c1-c1cc(Nc2cnc(C#N)cn2)n[nH]1 [Prexasertib] + CCc1c2c(nc3ccc(O)cc13)-c1cc3c(c(=O)n1C2)COC(=O)[C@]3(O)CC [SN-38] (first compound max 1 µM, 7x7, partner max 0.3 µM) | 0.0405 | 0.023 | 0.0983 | 0.0024 | -0.058 | -0.058 | 0.0019 | -0.0732 | 0.0357 | -0.0496 | -0.011 | -0.0005 | 0.258 | -0.0697
5 | COc1cccc2c1C(=O)c1c(O)c3c(c(O)c1C2=O)C[C@@](O)(C(=O)CO)C[C@@H]3O[C@H]1C[C@H](N)[C@H](O)[C@H](C)O1 [Doxorubicin] + Cc1cc2ncnn2cc1Nc1ncc2c(n1)n(C1CCOCC1)c(=O)n2C [AZD7648] (first compound max 1 µM, 7x7, partner max 10 µM) | -0.0027 | 0.0256 | 0.0223 | 0.0843 | 0.0644 | -0.0042 | 0.0787 | 0.005 | -0.0038 | -0.023 | 0.194 | 0.0693 | 0.0696 | 0.0376
6 | COc1cccc(OCCCN)c1-c1cc(Nc2cnc(C#N)cn2)n[nH]1 [Prexasertib] + CN(C)CCCOc1ccc(-c2ccc3ncc4c(c3c2)n(C2CCOCC2)c(=O)n4C)cn1 [AZD0156] (first compound max 1 µM, 7x7, partner max 1 µM) | -0.0159 | -0.0075 | -0.0286 | -0.0046 | -0.0098 | -0.0037 | -0.0093 | -0.0437 | -0.0309 | 0.0033 | -0.015 | -0.0134 | -0.022 | 0.0557
7 | Cc1c2c(nn1C)CSCc1cc(n(C)n1)CSc1cc(c3ccccc3c1)OCCCc1c(C(=O)O)n(C)c3c-2c(Cl)ccc13 [AZD5991] + Cn1cnc2c(F)c(Nc3ccc(Br)cc3Cl)c(C(=O)NOCCO)cc21 [Selumetinib] (first compound max 1 µM, 7x7, partner max 3 µM) | 0.0245 | -0.0229 | 0.137 | 0.0759 | 0.0177 | 0.0595 | -0.0023 | -0.0435 | -0.0059 | -0.106 | -0.0154 | 0.0827 | 0.0322 | 0.0215
8 | CC(=O)c1c(C)c2cnc(Nc3ccc(N4CCNCC4)cn3)nc2n(C2CCCC2)c1=O [Palbociclib] + Cn1cnc2c(F)c(Nc3ccc(Br)cc3Cl)c(C(=O)NOCCO)cc21 [Selumetinib] (first compound max 10 µM, 7x7, partner max 10 µM) | 0.0811 | -0.0448 | -0.0153 | -0.0054 | 0.0623 | -0.016 | 0.028 | 0.0301 | 0.0017 | -0.0874 | 0.0682 | -0.0354 | -0.0413 | -0.0287
9 | C[C@@H](c1ccc2nccn2c1)n1nnc2ncc(-c3cnn(C)c3)nc21 [Savolitinib] + CC1(C)CCC(CN2CCN(c3ccc(C(=O)NS(=O)(=O)c4ccc(NCC5CCOCC5)c([N+](=O)[O-])c4)c(Oc4cnc5[nH]ccc5c4)c3)CC2)=C(c2ccc(Cl)cc2)C1 [Venetoclax] (first compound max 1 µM, 7x7, partner max 1 µM) | -0.0328 | -0.0153 | -0.0518 | -0.0468 | -0.0228 | -0.0793 | -0.0021 | 0.0364 | -0.0802 | -0.0516 | -0.0158 | -0.0824 | -0.0371 | -0.0796
10 | Cc1cc2ncnn2cc1Nc1ncc2c(n1)n(C1CCOCC1)c(=O)n2C [AZD7648] + CCN(CCO)CCCOc1ccc2c(Nc3cc(CC(=O)Nc4cccc(F)c4)[nH]n3)ncnc2c1 [AZD2811] (first compound max 10 µM, 7x7, partner max 1 µM) | 0.0414 | -0.0267 | -0.0206 | 0.0227 | 0.0582 | -0.015 | 0.0393 | -0.0156 | 0.0382 | -0.0368 | -0.0188 | 0.0045 | -0.0108 | 0.0259
11 | CN(C)CCCOc1ccc(-c2ccc3ncc4c(c3c2)n(C2CCOCC2)c(=O)n4C)cn1 [AZD0156] + C=CCn1c(=O)c2cnc(Nc3ccc(N4CCN(C)CC4)cc3)nc2n1-c1cccc(C(C)(C)O)n1 [AZD1775] (first compound max 1 µM, partner max 1 µM) | -0.036 | -0.0399 | -0.0331 | -0.0043 | 0.0051 | -0.0544 | 0.0097 | 0.002 | -0.0537 | -0.0484 | -0.0214 | -0.0238 | -0.0958 | 0.0215
12 | Cc1c2c(nn1C)CSCc1cc(n(C)n1)CSc1cc(c3ccccc3c1)OCCCc1c(C(=O)O)n(C)c3c-2c(Cl)ccc13 [AZD5991] + CN(C)CCCOc1ccc(-c2ccc3ncc4c(c3c2)n(C2CCOCC2)c(=O)n4C)cn1 [AZD0156] (first compound max 1 µM, 7x7, partner max 1 µM) | -0.0237 | 0.0165 | -0.0125 | 0.0263 | -0.0418 | -0.0075 | -0.0286 | -0.0499 | -0.0443 | -0.0475 | -0.0194 | -0.0479 | 0.0178 | -0.0024
13 | Cc1c2c(nn1C)CSCc1cc(n(C)n1)CSc1cc(c3ccccc3c1)OCCCc1c(C(=O)O)n(C)c3c-2c(Cl)ccc13 [AZD5991] + C=CCn1c(=O)c2cnc(Nc3ccc(N4CCN(C)CC4)cc3)nc2n1-c1cccc(C(C)(C)O)n1 [AZD1775] (first compound max 1 µM, partner max 1 µM) | -0.0123 | -0.0174 | 0.0069 | -0.0518 | -0.0513 | 0.0385 | -0.0098 | 0.017 | -0.0248 | -0.0506 | 0.0063 | 0.0432 | 0.034 | -0.0441
14 | CN(CCO)CC[C@H](CSc1ccccc1)Nc1ccc(S(=O)(=O)NC(=O)c2ccc(N3CCC([C@@H](O)c4ccccc4-c4ccc(Cl)cc4)CC3)cc2)cc1S(=O)(=O)C(F)(F)F [AZD4320] + Cn1cnc2c(F)c(Nc3ccc(Br)cc3Cl)c(C(=O)NOCCO)cc21 [Selumetinib] (first compound max 1 µM, 7x7, partner max 3 µM) | 0.005 | 0.0277 | 0.0496 | 0.0193 | 0.13 | 0.0717 | -0.0512 | -0.0118 | 0.0027 | -0.075 | 0.0409 | 0.0026 | 0.0206 | -0.0149
15 | CC(=O)Nc1cccc(-n2c(=O)n(C3CC3)c(=O)c3c(Nc4ccc(I)cc4F)n(C)c(=O)c(C)c32)c1 [Trametinib] + Cc1nc(-c2cn3c(n2)-c2ccc(-c4cnn(C(C)(C)C(N)=O)c4)cc2OCC3)n(C(C)C)n1 [Taselisib] (first compound max 1 µM, 7x7, partner max 10 µM) | 0.192 | -0.0267 | 0.192 | 0.0597 | 0.0482 | 0.107 | 0.0419 | 0.046 | 0.088 | -0.0243 | 0.0467 | 0.12 | -0.0123 | -0.0107
16 | Cc1cc2ncnn2cc1Nc1ncc2c(n1)n(C1CCOCC1)c(=O)n2C [AZD7648] + O=C(c1cc(Cc2n[nH]c(=O)c3ccccc23)ccc1F)N1CCN(C(=O)C2CC2)CC1 [Olaparib] (first compound max 10 µM, 7x7, partner max 10 µM) | -0.0438 | -0.0443 | -0.0017 | -0.0153 | 0.0388 | -0.0277 | 0.0465 | -0.0743 | -0.0205 | -0.0821 | 0.0328 | -0.0389 | -0.0467 | -0.0427
17 | CCN(CCO)CCCOc1ccc2c(Nc3cc(CC(=O)Nc4cccc(F)c4)[nH]n3)ncnc2c1 [AZD2811] + O=C(c1cc(Cc2n[nH]c(=O)c3ccccc23)ccc1F)N1CCN(C(=O)C2CC2)CC1 [Olaparib] (first compound max 1 µM, 7x7, partner max 10 µM) | -0.0188 | -0.0949 | -0.0123 | 0.0173 | 0.0341 | -0.0075 | 0.0063 | -0.103 | -0.016 | -0.0195 | -0.0208 | 0.0928 | -0.0413 | -0.0532
18 | CC1(C)CCC(CN2CCN(c3ccc(C(=O)NS(=O)(=O)c4ccc(NCC5CCOCC5)c([N+](=O)[O-])c4)c(Oc4cnc5[nH]ccc5c4)c3)CC2)=C(c2ccc(Cl)cc2)C1 [Venetoclax] + Cn1cnc2c(F)c(Nc3ccc(Br)cc3Cl)c(C(=O)NOCCO)cc21 [Selumetinib] (first compound max 1 µM, 7x7, partner max 3 µM) | -0.0242 | -0.0386 | -0.0177 | 0.0087 | -0.0679 | -0.0618 | -0.06 | -0.0413 | -0.0431 | -0.0299 | 0.0009 | 0.0509 | -0.0137 | -0.0378

Reference: the supplement of paper PMC11061612
